# Assay results reported in patent US20050009840A1 (SUGEN, INC., priority 2003, published 2005).
# Target: T1, HGFR (Homo sapiens, UniProt P08581)
# T1 construct: purchased Upstate 14-526
# Assay: HGFR continuous-coupled spectrophotometric assay
# Format: biochemical
# Details: at 1 pM; Table 7, library procedure 42; read-out: % Inhibition (percent c-MET inhibition)
# T1 sequence (P08581 974-1390 limits assumed): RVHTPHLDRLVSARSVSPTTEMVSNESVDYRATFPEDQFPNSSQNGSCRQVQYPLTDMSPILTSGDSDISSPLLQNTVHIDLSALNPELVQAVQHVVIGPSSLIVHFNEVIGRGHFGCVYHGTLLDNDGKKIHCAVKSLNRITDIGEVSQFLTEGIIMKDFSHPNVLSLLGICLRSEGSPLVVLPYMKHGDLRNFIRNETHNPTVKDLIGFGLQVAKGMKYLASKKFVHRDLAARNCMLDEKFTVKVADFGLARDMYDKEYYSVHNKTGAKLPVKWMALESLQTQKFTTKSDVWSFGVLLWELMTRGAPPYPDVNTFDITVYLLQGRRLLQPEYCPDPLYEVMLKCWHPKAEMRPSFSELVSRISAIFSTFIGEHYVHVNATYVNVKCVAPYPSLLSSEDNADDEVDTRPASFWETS
row,Compound,inhibition at 1 pM
1,Nc1ncc(-c2ccc(C(=O)N3CCC(N4CCCC4)CC3)cc2)cc1OCc1ccc(F)c(F)c1,19%
2,CC(C)c1ccc(COc2cc(-c3ccc(C(=O)N4CCC(N5CCCC5)CC4)cc3)cnc2N)cc1,32%
3,Nc1ncc(-c2ccc(C(=O)N3CCC(N4CCCC4)CC3)cc2)cc1OCc1ccccc1-c1ccccc1,22%
4,Nc1ncc(-c2ccc(C(=O)N3CCC(N4CCCC4)CC3)cc2)cc1OCc1ccc(OC(F)(F)F)cc1,20%
5,Nc1ncc(-c2ccc(C(=O)N3CCC(N4CCCC4)CC3)cc2)cc1OCc1cc(F)cc(F)c1,14%
6,Nc1ncc(-c2ccc(C(=O)N3CCC(N4CCCC4)CC3)cc2)cc1OCc1cccc(F)c1F,24%
7,COc1ccc(-c2nc(COc3cc(-c4ccc(C(=O)N5CCC(N6CCCC6)CC5)cc4)cnc3N)no2)cc1,10%
8,COc1cc(COc2cc(-c3ccc(C(=O)N4CCC(N5CCCC5)CC4)cc3)cnc2N)cc(OC)c1OC,10%
9,Nc1ncc(-c2ccc(C(=O)N3CCC(N4CCCC4)CC3)cc2)cc1OCc1cc(Cl)cc(Cl)c1,19%
10,Nc1ncc(-c2ccc(C(=O)N3CCC(N4CCCC4)CC3)cc2)cc1OCc1cccc(Oc2ccccc2)c1,34%
11,Nc1ncc(-c2ccc(C(=O)N3CCC(N4CCCC4)CC3)cc2)cc1OCc1cccc(Cl)c1Cl,40%
12,Cc1ccc(COc2cc(-c3ccc(C(=O)N4CCC(N5CCCC5)CC4)cc3)cnc2N)cc1Cl,26%
13,Nc1ncc(-c2ccc(C(=O)N3CCC(N4CCCC4)CC3)cc2)cc1OCc1cc(Cl)ccc1Cl,26%
14,Nc1ncc(-c2ccc(C(=O)N3CCC(N4CCCC4)CC3)cc2)cc1OCc1nc(CS(=O)(=O)c2ccccn2)no1,9%
15,Nc1ncc(-c2ccc(C(=O)N3CCC(N4CCCC4)CC3)cc2)cc1OCc1cc(-c2c(Cl)cccc2Cl)no1,14%
16,CC(=O)N(c1ccc(C)cc1)c1nc(COc2cc(-c3ccc(C(=O)N4CCC(N5CCCC5)CC4)cc3)cnc2N)cs1,9%
17,CC(Oc1cc(-c2ccc(C(=O)N3CCC(N4CCCC4)CC3)cc2)cnc1N)c1ccccc1 (centres unmarked),10%
18,Nc1ncc(-c2ccc(C(=O)N3CCC(N4CCCC4)CC3)cc2)cc1OCc1cccc(OC(F)(F)F)c1,13%
19,Cc1cc(COc2cc(-c3ccc(C(=O)N4CCC(N5CCCC5)CC4)cc3)cnc2N)nc(-c2ccc(C(F)(F)F)cn2)n1,8%
20,Nc1ncc(-c2ccc(C(=O)N3CCC(N4CCCC4)CC3)cc2)cc1OCc1cc(F)ccc1Br,24%
21,Cc1cc(C)cc(COc2cc(-c3ccc(C(=O)N4CCC(N5CCCC5)CC4)cc3)cnc2N)c1,14%
22,COc1cccc(COc2cc(-c3ccc(C(=O)N4CCC(N5CCCC5)CC4)cc3)cnc2N)c1,15%
23,Nc1ncc(-c2ccc(C(=O)N3CCC(N4CCCC4)CC3)cc2)cc1OCc1ccc(Cl)cc1,15%
24,Nc1ncc(-c2ccc(C(=O)N3CCC(N4CCCC4)CC3)cc2)cc1OCc1cccc(Cl)c1F,28%
25,Nc1ncc(-c2ccc(C(=O)N3CCC(N4CCCC4)CC3)cc2)cc1OCc1ccc(Cl)c(Cl)c1,26%
26,Nc1ncc(-c2ccc(C(=O)N3CCC(N4CCCC4)CC3)cc2)cc1OCc1cc(F)c(F)cc1F,12%

row,Compound,inhibition at 1 pM
1,Nc1ncc(-c2ccc(C(=O)N3CCC(N4CCCC4)CC3)cc2)cc1OCc1ccc(F)c(F)c1F,15%
2,Nc1ncc(-c2ccc(C(=O)N3CCC(N4CCCC4)CC3)cc2)cc1OCc1ccc(C(F)(F)F)cc1C(F)(F)F,12%
3,Nc1ncc(-c2ccc(C(=O)N3CCC(N4CCCC4)CC3)cc2)cc1OCc1c(F)ccc(F)c1F,30%
4,Nc1ncc(-c2ccc(C(=O)N3CCC(N4CCCC4)CC3)cc2)cc1OCc1ccc(C(F)(F)F)cc1,10%
5,Cc1cccc(COc2cc(-c3ccc(C(=O)N4CCC(N5CCCC5)CC4)cc3)cnc2N)c1F,28%
6,CC(Oc1cc(-c2ccc(C(=O)N3CCC(N4CCCC4)CC3)cc2)cnc1N)c1ccccc1C(F)(F)F (centres unmarked),21%
7,CC(=O)Nc1nc(COc2cc(-c3ccc(C(=O)N4CCC(N5CCCC5)CC4)cc3)cnc2N)cs1,9%
8,Nc1ncc(-c2ccc(C(=O)N3CCC(N4CCCC4)CC3)cc2)cc1OCc1ccccc1CS(=O)(=O)c1ccccc1,11%
9,Nc1ncc(-c2ccc(C(=O)N3CCC(N4CCCC4)CC3)cc2)cc1OC1OC(=O)c2ccccc21 (centres unmarked),4%
10,Nc1ncc(-c2ccc(C(=O)N3CCC(N4CCCC4)CC3)cn2)cc1OCc1ccc(-c2csnn2)cc1,41%
11,Nc1ncc(-c2ccc(C(=O)N3CCN(C4CCCC4)CC3)cc2)cc1OCc1cc(F)cc2c1OCOC2,21%
12,Nc1ncc(-c2ccc(C(=O)N3CCC(N4CCCC4)CC3)cc2)cc1OCc1cc(C(F)(F)F)cc(C(F)(F)F)c1,14%
13,Nc1ncc(-c2ccc(C(=O)N3CCC(N4CCCC4)CC3)cc2)cc1OCc1ccc(F)c(C(F)(F)F)c1,13%
14,Nc1ncc(-c2ccc(C(=O)N3CCC(N4CCCC4)CC3)cc2)cc1OCc1cc(F)cc(C(F)(F)F)c1,12%
15,Nc1ncc(-c2ccc(C(=O)N3CCC(N4CCCC4)CC3)cc2)cc1OCc1c(F)cccc1C(F)(F)F,31%
16,Nc1ncc(-c2ccc(C(=O)N3CCC(N4CCCC4)CC3)cc2)cc1OCc1cc(F)c(F)c(F)c1,19%
17,Nc1ncc(-c2ccc(C(=O)N3CCC(N4CCCC4)CC3)cc2)cc1OCc1ccccc1OC(F)F,27%
18,Nc1ncc(-c2ccc(C(=O)N3CCC(N4CCCC4)CC3)cc2)cc1OCc1ccc(C(F)(F)F)c(F)c1,25%
19,Nc1ncc(-c2ccc(C(=O)N3CCC(N4CCCC4)CC3)cc2)cc1OCc1ccc(Br)cc1F,31%
20,Nc1ncc(-c2ccc(C(=O)N3CCC(N4CCCC4)CC3)cc2)cc1OCc1cc(Br)cc(Br)c1,45%
21,CS(=O)(=O)c1ccc(COc2cc(-c3ccc(C(=O)N4CCC(N5CCCC5)CC4)cc3)cnc2N)cc1,11%
22,N#Cc1ccccc1-c1ccc(COc2cc(-c3ccc(C(=O)N4CCC(N5CCCC5)CC4)cc3)cnc2N)cc1,77%
23,Nc1ncc(-c2ccc(C(=O)N3CCC(N4CCCC4)CC3)cc2)cc1OCc1ccc(C(=O)NCCN2CCOCC2)cc1,11%
24,CN(C)CCNC(=O)c1ccc(COc2cc(-c3ccc(C(=O)N4CCC(N5CCCC5)CC4)cc3)cnc2N)cc1,9%
25,Nc1ncc(-c2ccc(C(=O)N3CCC(N4CCCC4)CC3)cc2)cc1OCc1ccc(C(=O)N2CCNC(c3ccccc3)C2)cc1 (centres unmarked),12%
26,Nc1ncc(-c2ccc(C(=O)N3CCC(N4CCCC4)CC3)cc2)cc1OCc1ccc(C(=O)NCc2ccccn2)cc1,7%

row,Compound,inhibition at 1 pM
1,Nc1ncc(-c2ccc(C(=O)N3CCC(N4CCCC4)CC3)cc2)cc1OCc1cccc(C(=O)Nc2cccnc2)c1,10%
2,Nc1ncc(-c2ccc(C(=O)N3CCC(N4CCCC4)CC3)cc2)cc1OCc1cccc(C(=O)NCc2cccnc2)c1,14%
3,Nc1ncc(-c2ccc(C(=O)N3CCC(N4CCCC4)CC3)cc2)cc1OCc1cccc(C(=O)NCc2ccncc2)c1,10%
4,Nc1ncc(-c2ccc(C(=O)N3CCC(N4CCCC4)CC3)cc2)cc1OCc1cccc(C(=O)NCCc2ccccn2)c1,12%
5,Nc1ncc(-c2ccc(C(=O)N3CCC(N4CCCC4)CC3)cc2)cc1OCc1cccc(C(=O)NC2CCN(Cc3ccccc3)C2)c1 (centres unmarked),13%
6,Nc1ncc(-c2ccc(C(=O)N3CCC(N4CCCC4)CC3)cc2)cc1OCc1ccc(C(=O)NCCc2ccccn2)cc1,11%
7,Nc1ncc(-c2ccc(C(=O)N3CCC(N4CCCC4)CC3)cc2)cc1OCc1ccc(C(=O)NCCN2CCCC2)cc1,10%
8,Nc1ncc(-c2ccc(C(=O)N3CCC(N4CCCC4)CC3)cc2)cc1OCc1ccc(C(=O)NCCCN2CCCC2=O)cc1,11%
9,Nc1ncc(-c2ccc(C(=O)N3CCC(N4CCCC4)CC3)cc2)cc1OCc1cccc(C(=O)NC2CCN(Cc3ccccc3)CC2)c1,13%
10,Nc1ncc(-c2ccc(C(=O)N3CCC(N4CCCC4)CC3)cc2)cc1OCc1ccc(C(=O)NC2CCN(Cc3ccccc3)CC2)cc1,11%
11,CCN1CCCC1CNC(=O)c1cccc(COc2cc(-c3ccc(C(=O)N4CCC(N5CCCC5)CC4)cc3)cnc2N)c1 (centres unmarked),10%
12,CCN1CCCC1CNC(=O)c1ccc(COc2cc(-c3ccc(C(=O)N4CCC(N5CCCC5)CC4)cc3)cnc2N)cc1 (centres unmarked),18%
13,CN(C)c1ccc(NC(=O)c2cccc(COc3cc(-c4ccc(C(=O)N5CCC(N6CCCC6)CC5)cc4)cnc3N)c2)cc1,23%
14,CCN(CC)c1ccc(NC(=O)c2ccc(COc3cc(-c4ccc(C(=O)N5CCC(N6CCCC6)CC5)cc4)cnc3N)cc2)cc1,47%
15,Nc1ncc(-c2ccc(C(=O)N3CCC(N4CCCC4)CC3)cc2)cc1OCc1ccc(C(=O)NCc2cccnc2)cc1,15%
16,Nc1ncc(-c2ccc(C(=O)N3CCC(N4CCCC4)CC3)cc2)cc1OCc1ccc(C(=O)NC2CCN(Cc3ccccc3)C2)cc1 (centres unmarked),24%
17,Nc1ncc(-c2ccc(C(=O)N3CCC(N4CCCC4)CC3)cc2)cc1OCc1cccc(C(=O)Nc2ccc(N3CCCCC3)cc2)c1,32%
18,CC(C)Oc1cc(C(F)(F)F)nc2ccc(COc3cc(-c4ccc(C(=O)N5CCC(N6CCCC6)CC5)cc4)cnc3N)cc12,19%
19,Nc1ncc(-c2ccc(C(=O)N3CCC(N4CCCC4)CC3)cc2)cc1OCc1csc(-c2ccc(C(F)(F)F)cc2)n1,21%
20,Nc1ncc(-c2ccc(C(=O)N3CCC(N4CCCC4)CC3)cc2)cc1OCc1ccc2ccccc2c1Br,59%
21,CN(C)CCNC(=O)c1cccc(COc2cc(-c3ccc(C(=O)N4CCC(N5CCCC5)CC4)cc3)cnc2N)c1,20%
22,Nc1ncc(-c2ccc(C(=O)N3CCC(N4CCCC4)CC3)cc2)cc1OCc1cc(C(F)(F)F)ccc1Cl,26%
23,Nc1ncc(-c2ccc(C(=O)N3CCC(N4CCCC4)CC3)cc2)cc1OCc1cc(F)ccc1C(F)(F)F,26%
24,Nc1ncc(-c2ccc(C(=O)N3CCC(N4CCCC4)CC3)cc2)cc1OCc1ccccc1OC(F)(F)F,21%
25,CCOC(=O)C1CCN(C(=O)c2ccc(COc3cc(-c4ccc(C(=O)N5CCC(N6CCCC6)CC5)cc4)cnc3N)cc2)CC1,16%
